Tested on: Trypanosome (T. brucei brucei)
Assay: In-vitro antitrypanosomal efficacy assay (cell growth, resazurin)
Assay type: cell-based
Conditions: T. brucei brucei, blood stream form, variant 221
Method: To column 12, 200 μl media was added to provide a no cells control. Plates were then incubated at 37° C. in an atmosphere of 5% CO2 for 69 hours, before the addition of 20 μl of 500 μM rezasurin solution, and a further incubation period of 4 hours. […] Concentration effect curves were fitted using non-linear regression using XLFit 4.2 and EC50 values determined.

| SMILES | ED50 (μM) T. brucei [µM] |
| --- | --- |
| Cc1nn(C)c(C)c1N(C)[S+](=O)([O-])c1ccc(CCCCCCCCN(C)C)cc1 [DDD100093] | 0.106 |
| Cc1c(N[S+](=O)([O-])c2ccc(-c3cccc(CN4[C@@H](C)CC[C@@H]4C)c3)cc2)c(CC(C)C)nn1C [DDD100790] | 0.269 |
| Cc1c(N[S+](=O)([O-])c2ccc(-c3ccc(F)c(CN(C)C)c3)cc2)c(CC(C)C)nn1C [DDD99832] | 0.010 |
| Cc1nn(C)c(C)c1N(C)[S+](=O)([O-])c1ccc(CCCCCCCn2ccnc2)cc1 [DDD99838] | >1 |
| Cc1nn(C)c(C)c1N(CC(F)F)[S+](=O)([O-])c1c(Cl)cc(CCCN2CCCN(C)CC2)cc1Cl [DDD100802] | 0.004 |
| Cc1nn(C)c(C)c1N(CC(F)F)[S+](=O)([O-])c1c(Cl)cc(CCCC2CCN(C)CC2)cc1Cl [DDD100160] | 0.013 |
| CCN(c1c(C)nn(C)c1C)[S+](=O)([O-])c1c(Cl)cc(CCCC2CCN(C)CC2)cc1Cl [DDD100088] | 0.003 |
| Cc1nn(C)c(C)c1N(CC(F)F)[S+](=O)([O-])c1c(Cl)cc(CCCC2CCNCC2)cc1Cl [DDD100145] | 0.02 |
| Cc1nn(C)c(C)c1N[S+](=O)([O-])c1ccc(CCCCC2CCN(C)CC2)cc1 [DDD99830] | 0.020 |
| Cc1c(N[S+](=O)([O-])c2ccc(-c3cccc(C(C)(C)N)c3)cc2)c(CC(C)C)nn1C [DDD100870] | 0.013 |
| Cc1nn(C)c(C)c1N(C)[S+](=O)([O-])c1c(Cl)cc(CCCCCCn2ccnc2)cc1Cl [DDD99833] | 0.018 |
| Cc1c(N[S+](=O)([O-])c2ccc(-c3cc(CN(C)C)ccc3Cl)cc2)c(CC(C)C)nn1C [DDD99826] | 0.104 |

Same assay, conditions: T. brucei cell growth

| SMILES | ED50 (μM) T. brucei [µM] |
| --- | --- |
| Cc1nn(C)c(C)c1N(C)[S+](=O)([O-])c1c(Cl)cc(CCCN2CCN(C)CC2)cc1Cl [DDD88644] | 0.012 |
| Cc1nn(C)c(C)c1N[S+](=O)([O-])c1ccc(N2CCCC(N3CCNCC3)C2)nc1 (stereo not shown) [DDD87757] | 0.003 |
| Cc1c(N[S+](=O)([O-])c2c(Cl)cc(Br)cc2Cl)c(CC(C)C)nn1C [DDD88198, 4-Bromo-2,6-dichloro-N-(3-isobutyl-1,5-dimethyl-1H-pyrazol-4-yl)-benzenesulfonamide] | 2.3 |
| Cc1nn(C)c(C)c1N(C)[S+](=O)([O-])c1c(Cl)cc(CCCN2CC(C)NC(C)C2)cc1Cl (stereo not shown) [DDD99751] | 0.021 |
| Cc1nn(C)c(C)c1N[S+](=O)([O-])c1c(Cl)cc(-c2ccc(CN3CCN(C)CC3)cc2)cc1Cl [DDD85644] | 2.1 |
| Cc1c(N(C)[S+](=O)([O-])c2ccc(-c3cccc(C4CCNCC4)c3)cc2)c(CC(C)C)nn1C [DDD99815] | 0.123 |
| Cc1nn(C)c(C)c1N[S+](=O)([O-])c1ccc(C#N)cc1Cl [DDD73228] | >1 |
| Cc1nn(C)c(C)c1N(C)[S+](=O)([O-])c1ccc(CCCC2CCN(C)CC2)cc1 [DDD90023] | 0.20 |
| Cc1nn(C)c(C)c1N[S+](=O)([O-])c1ccc(NCCN2CCNCC2)nc1 [DDD86305] | >1 |
| CCN(CC)Cc1ccc(-c2cc(Cl)c([S+](=O)([O-])Nc3c(C)nn(C)c3C)c(Cl)c2)cc1 [DDD85639] | >1 |
| CCN(CC)Cc1cccc(-c2ccc([S+](=O)([O-])N(C)c3c(CC(C)C)nn(C)c3C)cc2)c1 [DDD88643] | 0.49 |
| Cc1cc([S+](=O)([O-])Nc2c(C)nn(C)c2C)ccc1Br [DDD71235] | >1 |
| Cc1nn(C)c(C)c1N[S+](=O)([O-])c1ccc(NCCN2CCN(Cc3ccccc3)CC2)nc1 [DDD86472] | >1 |
| Cc1nn(C)c(C)c1N[S+](=O)([O-])c1ccc(-c2cccc(CNCCN(C)C)c2)cc1 [DDD86316, 3′-[(2-Dimethylamino-ethylamino)-methyl]biphenyl-4-sulfonic acid (1,3,5-trimethyl-1H-pyrazol-4-yl)-amide] | 5.0 |
| Cc1nn(C)c(C)c1N[S+](=O)([O-])c1ccc(CNC(=O)c2ccc(Cl)cc2)s1 [DDD73224] | >1 |
| Cc1nn(C)c(C)c1N(C)[S+](=O)([O-])c1ccc(CCCCCCN(C)C)cc1 [DDD99753] | 0.406 |

| SMILES | ED50 (μM) T. brucei [µM] |
| --- | --- |
| Cc1noc(C)c1N[S+](=O)([O-])c1c(Cl)cc(-c2ccnc(N3CCNCC3)c2)cc1Cl [DDD86468, 2,6-Dichloro-N-(3,5-dimethyl-isoxazol-4-yl)-4-(2-piperazin-1-yl-pyridin-4-yl)-benzenesulfonamide] | 0.20 |
| Cc1nn(C)c(C)c1N[S+](=O)([O-])c1ccc(-c2cccc(CN3CCNCC3)c2)cc1 [DDD86317, 3′-piperazin-1-ylmethyl-biphenyl-4-sulfonic acid (1,3,5-trimethyl-1H-pyrazol-4-yl)-amide] | 0.02 |
| COCc1ccccc1-c1cc(Cl)c([S+](=O)([O-])Nc2c(C)nn(C)c2C)c(Cl)c1 [DDD73274] | >1 |
| Cc1nn(C)cc1N[S+](=O)([O-])c1ccc(-c2ccnc(N3CCNCC3)c2)cc1 [DDD86471, N-(1,3-Dimethyl-1H-pyrazol-4-yl)-4-(2-piperazin-1-yl-pyridin-4-yl)-benzenesulfonamide] | 0.009 |
| Cc1ncccc1N[S+](=O)([O-])c1ccc(-c2cccc(C3CCNCC3)c2)cc1 [DDD88003, 3′-Piperidin-4-yl-biphenyl-4-sulfonic acid (2-methyl-pyridin-3-yl)-amide] | 1.9 |
| Cc1nn(C)c(C)c1N(CC(F)F)[S+](=O)([O-])c1ccc(-c2ccnc(N3CCNCC3)c2)cc1 [DDD90111] | 0.005 |
| Cc1nn(C)c(C)c1N[S+](=O)([O-])c1ccc(NCCc2ccccc2)nc1 [DDD73319] | 8.4 |
| CCc1ccc([S+](=O)([O-])Nc2c(C)nn(C)c2C)cc1 [DDD71231] | >1 |
| Cc1nn(C)c(C)c1N[S+](=O)([O-])c1ccc2nc(Cl)ccc2c1 [DDD88533] | >10 |
| Cc1nn(C)c(C)c1N[S+](=O)([O-])c1ccc(-c2ccccc2CN2CCN(C)CC2)cc1 [DDD87764, 2′-(4-Methyl-piperazin-1-ylmethyl)-biphenyl-4-sulfonic acid (1,3,5-trimethyl-1H-pyrazol-4-yl)-amide] | >1 |
| Cc1nn(C)c(CC(C)C)c1N[S+](=O)([O-])c1c(Cl)cc(-c2ccnc(N3CCNCC3)c2)cc1Cl [DDD86467, 2,6-Dichloro-N-(5-isobutyl-1,3-dimethyl-1H-pyrazol-4-yl)-4-(2-piperazin-1-yl-pyridin-4-yl)-benzenesulfonamide] | 0.003 |
| CCN(CC)Cc1cccc(-c2ccc([S+](=O)([O-])Nc3c(C)nn(C)c3C)cc2)c1 [DDD86312, 3′-Diethylaminomethyl-biphenyl-4-sulfonic acid (1,3,5-trimethyl-1H-pyrazol-4-yl)-amide] | 0.07 |
| Cc1cc(CCCN2CCN(C)CC2)cc(C)c1[S+](=O)([O-])N(C)c1c(C)nn(C)c1C [DDD99818] | 0.047 |
| Cc1nn(C)c(C)c1N(C)[S+](=O)([O-])c1ccc(CCCC2CCNCC2)cc1 [DDD90112] | 0.270 |
| Cc1nn(C)c(C)c1N[S+](=O)([O-])c1ccc(NCCCN2CCC(N(C)C)C2)nc1 (stereo not shown) [DDD86300] | 1.73 |

Source: US9156811B2 (priority 2008, dated 2015)
